Reference: US9586961B2, “Homopiperazine derivatives as protein tyrosine kinase inhibitors and pharmaceutical use thereof” (LEO PHARMA A/S, priority 2010, dated 2017)

Columns and labels:
Assay type in all cases: biochemical
JAK1 = molecular target: T1, JAK1 (Homo sapiens, UniProt P23458); test: JAK1 kinase assay (HTRF, inhibition of phosphorylation of a synthetic peptide); conditions: catalytic domain aa 850-1154, GST-tag; 7 μM ATP (Km); read-out: JAK1 kinase inhibitory activity (EC50)
T1 construct: JAK1 (aa 850-1154) and TYK2 (aa 871-1187) are expressed with an N-terminally fused GST-tag; GST (N); purchased Carna Biosciences, Inc; host or cells: baculovirus expression system
Method in brief: (§1)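 Baculovirus-expressed human catalytic domains (GST-JAK1, GST-TYK2, His-JAK2, His-JAK3) phosphorylated 1 μM TK substrate-biotin at ATP Km (JAK1 7 μM, JAK2 4 μM, JAK3 2 μM, TYK2 13 μM) in pH 7.0 Hepes for 20-30 min at RT, 0.75% DMSO. EDTA stop, then overnight streptavidin-XL665/cryptate-antibody detection and HTRF read.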

TYK2 = molecular target: T2, TYK2 (Homo sapiens, UniProt P29597); test: TYK2 kinase assay (HTRF, inhibition of phosphorylation of a synthetic peptide); conditions: catalytic domain aa 871-1187, GST-tag; 13 μM ATP (Km); read-out: TYK2 kinase inhibitory activity (EC50)
T2 construct: JAK1 (aa 850-1154) and TYK2 (aa 871-1187) are expressed with an N-terminally fused GST-tag; GST (N); purchased Carna Biosciences, Inc; host or cells: baculovirus expression system
T2 sequence (P29597 871-1187): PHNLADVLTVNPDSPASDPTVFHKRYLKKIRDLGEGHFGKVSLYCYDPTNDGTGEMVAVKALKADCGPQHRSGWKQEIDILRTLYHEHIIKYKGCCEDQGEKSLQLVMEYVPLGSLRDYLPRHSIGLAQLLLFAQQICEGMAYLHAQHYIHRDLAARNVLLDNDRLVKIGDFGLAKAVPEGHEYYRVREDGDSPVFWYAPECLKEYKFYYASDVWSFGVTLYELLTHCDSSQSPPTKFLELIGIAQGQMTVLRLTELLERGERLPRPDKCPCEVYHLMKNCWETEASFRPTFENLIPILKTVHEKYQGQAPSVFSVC
Description: JAK1, JAK2, JAK3 and TYK2 Kinase Assays:
Human baculovirus-expressed JAK1, 2, 3 and TYK2 were purchased from Carna Biosciences, Inc. All four purified enzymes contain only the catalytic domain. JAK1 (aa 850-1154) and TYK2 (aa 871-1187) are expressed with an N-terminally fused GST-tag, and JAK2 and JAK3 with an N-terminally fused His-tag. Inhibition of phosphorylation of a synthetic peptide was measured in an HTRF-based assay using the TK substrate-Biotin from the CisbioHTRFKinEASE TK kit. First, 2 μl of TK solution (TK substrate-biotin in kinase buffer [1× enzymatic buffer from HTRFKinEASE TK kit, 1 mM DTT]) is added to a plate containing 1 μl prediluted compound (final assay concentration DMSO: 0.75%). Then, 5 μl kinase-ATP mix (prepared in kinase buffer) is added to the wells and the plates are incubated at RT for 20-30 min. For all four kinases a concentration of ATP that corresponded to the Km for ATP was used. The final concentrations of buffers, substrate, kinase and ATP were: JAK1: 50 mMHepes buffer pH 7.0, 0.01% BSA, 10 mM MgCl2, 1 mM DTT, 7 μM ATP, 50 nMSEB, 1 μM TK Substrate-Biotin and 5 ng JAK1; JAK2: 50 mM Hepes buffer pH 7.0, 0.01% BSA, 5 mM MgCl2, 1 mM DTT, 4 μM ATP, 1 μM TK Substrate-Biotin and 0.1 ng JAK2; JAK3: 50 mMHepes buffer pH 7.0, 0.01% BSA, 5 mM MgCl2, 1 mM DTT, 2 μM ATP, 1 μM TK Substrate-Biotin and 0.3 ng JAK3; TYK2: 50 mMHepes buffer pH 7.0, 0.01% BSA, 5 mM MgCl2, 1 mM DTT, 13 μM ATP, 50 nMSEB, 1 μM TK Substrate-Biotin and 0.8 ng TYK2. Thereafter, the kinase reaction is stopped by adding 4 μl detection mix (final concentrations: 50 mM Hepes buffer pH 7.0, 0.01% BSA, 0.8 M KF, 20 mM EDTA, 42 nM Streptavidin-XL665 and 1:400 STKAbCryptate) and the plates are incubated overnight in the dark. The HTRF signal is read using an Envision plate reader.

JAK3 = molecular target: T3, JAK3 (Homo sapiens, UniProt P52333); test: JAK3 kinase assay (HTRF, inhibition of phosphorylation of a synthetic peptide); conditions: catalytic domain, His-tag; 2 μM ATP (Km); read-out: JAK3 kinase inhibitory activity (EC50)
T3 construct: All four purified enzymes contain only the catalytic domain; His (N); purchased Carna Biosciences, Inc; host or cells: baculovirus expression system
Method in brief: as §1

JAK2 = molecular target: T4, JAK2 (Homo sapiens, UniProt O60674); test: JAK2 kinase assay (HTRF, inhibition of phosphorylation of a synthetic peptide); conditions: catalytic domain, His-tag; 4 μM ATP (Km); read-out: JAK2 kinase inhibitory activity (EC50)
T4 construct: All four purified enzymes contain only the catalytic domain; His (N); purchased Carna Biosciences, Inc; host or cells: baculovirus expression system
Method in brief: as §1

T1 sequence (P23458 850-1154): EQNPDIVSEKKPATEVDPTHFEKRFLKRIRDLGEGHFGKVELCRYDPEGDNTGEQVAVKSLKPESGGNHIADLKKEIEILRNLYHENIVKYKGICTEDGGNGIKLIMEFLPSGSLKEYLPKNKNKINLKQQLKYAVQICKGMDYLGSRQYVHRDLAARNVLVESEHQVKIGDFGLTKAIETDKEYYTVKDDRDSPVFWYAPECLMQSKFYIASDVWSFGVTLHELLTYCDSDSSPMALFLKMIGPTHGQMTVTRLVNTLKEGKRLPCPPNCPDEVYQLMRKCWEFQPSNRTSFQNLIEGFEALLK
T3 sequence (P52333 822-1111 limits assumed): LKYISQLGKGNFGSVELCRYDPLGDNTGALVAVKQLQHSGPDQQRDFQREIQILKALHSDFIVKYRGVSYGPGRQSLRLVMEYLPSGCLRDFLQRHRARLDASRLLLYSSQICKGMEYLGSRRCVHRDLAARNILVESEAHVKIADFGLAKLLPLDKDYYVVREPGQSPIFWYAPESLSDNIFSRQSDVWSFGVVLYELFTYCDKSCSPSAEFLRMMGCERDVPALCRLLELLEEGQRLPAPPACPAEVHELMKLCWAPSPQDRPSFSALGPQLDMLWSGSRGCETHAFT
T4 sequence (O60674 849-1124 limits assumed): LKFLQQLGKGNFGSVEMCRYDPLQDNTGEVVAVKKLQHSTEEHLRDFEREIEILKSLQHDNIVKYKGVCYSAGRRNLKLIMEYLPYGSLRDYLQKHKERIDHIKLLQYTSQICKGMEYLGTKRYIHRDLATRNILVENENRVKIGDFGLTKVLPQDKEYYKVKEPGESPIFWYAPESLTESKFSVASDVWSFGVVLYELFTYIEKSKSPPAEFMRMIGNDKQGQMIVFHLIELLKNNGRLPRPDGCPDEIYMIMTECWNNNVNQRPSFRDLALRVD

Structure (SMILES) | EC50 (JAK1) | EC50 (TYK2) | EC50 (JAK3) | EC50 (JAK2)
Cn1cc(S(N)(=O)=O)cc1C(=O)N1CCN(c2ncnc3[nH]ccc23)CC2(CC2)C1 [Example 36, 1-methyl-5-[5-(7H-pyrrolo[2,3-d]pyrimidin-4-yl)-5,8-diazaspiro[2.6]nonane-8-carbonyl]pyrrole-3-sulfonamide] | 0.1 to 1 µM | > 1 µM | 0.1 to 1 µM | 0.1 to 1 µM
NS(=O)(=O)c1ccc(C(=O)N2CCN(c3ncnc4[nH]ccc34)CC3(CC3)C2)o1 [Example 37, 5-[5-(7H-pyrrolo[2,3-d]pyrimidin-4-yl)-5,8-diazaspiro[2.6]nonane-8-carbonyl]furan-2-sulfonamide] | 0.1 to 1 µM | > 1 µM | 0.1 to 1 µM | < 0.1 µM
Cc1ccc(C(=O)N2CCN(c3ncnc4[nH]ccc34)CC3(CC3)C2)cc1S(N)(=O)=O [Example 38, 2-methyl-5-[5-(7H-pyrrolo[2,3-d]pyrimidin-4-yl)-5,8-diazaspiro[2.6]nonane-8-carbonyl]benzenesulfonamide] | < 0.1 µM | 0.1 to 1 µM | 0.1 to 1 µM | < 0.1 µM
NS(=O)(=O)CCCC(=O)N1CCN(c2ncnc3[nH]ccc23)CC2(CC2)C1 [Example 39, 4-oxo-4-[5-(7H-pyrrolo[2,3-d]pyrimidin-4-yl)-5,8-diazaspiro[2.6]nonan-8-yl]butane-1-sulfonamide] | < 0.1 µM | > 1 µM | < 0.1 µM | < 0.1 µM
N#CC1(C(=O)N2CCN(c3ncnc4[nH]ccc34)CC3(CC3)C2)CCCC1 [Example 40, 1-[5-(7H-pyrrolo[2,3-d]pyrimidin-4-yl)-5,8-diazaspiro[2.6]nonane-8-carbonyl]cyclopentanecarbonitrile] | > 1 µM | > 1 µM | 0.1 to 1 µM | 0.1 to 1 µM
N#CC1(C(=O)N2CCN(c3ncnc4[nH]ccc34)CC3(CC3)C2)CCOCC1 [Example 41, 4-[5-(7H-pyrrolo[2,3-d]pyrimidin-4-yl)-5,8-diazaspiro[2.6]nonane-8-carbonyl]tetrahydropyran-4-carbonitrile] | > 1 µM | > 1 µM | 0.1 to 1 µM | 0.1 to 1 µM
N#Cc1ccc(C(=O)N2CCN(c3ncnc4[nH]ccc34)CC3(CC3)C2)cc1F [Example 42, 2-fluoro-4-[5-(7H-pyrrolo[2,3-d]pyrimidin-4-yl)-5,8-diazaspiro[2.6]nonane-8-carbonyl]benzonitrile] | 0.1 to 1 µM | > 1 µM | 0.1 to 1 µM | 0.1 to 1 µM
COc1cc(OC)cc(C(=O)N2CCN(c3ncnc4[nH]ccc34)CC3(CC3)C2)c1 [Example 43, (3,5-dimethoxyphenyl)-[5-(7H-pyrrolo[2,3-d]pyrimidin-4-yl)-5,8-diazaspiro[2.6]nonan-8-yl]methanone] | > 1 µM | > 1 µM | > 1 µM | > 1 µM
N#CC1(C(=O)N2CCN(c3ncnc4[nH]ccc34)CCC23CC3)CC1 [Example 44, 1-[6-(7H-pyrrolo[2,3-d]pyrimidin-4-yl)-6,9-diazaspiro[2.6]nonane-9-carbonyl]cyclopropanecarbonitrile] | 0.1 to 1 µM | > 1 µM | > 1 µM | 0.1 to 1 µM
O=C(CCC(F)(F)F)N1CCN(c2ncnc3[nH]ccc23)CCC12CC2 [Example 45, 4,4,4-trifluoro-1-[6-(7H-pyrrolo[2,3-d]pyrimidin-4-yl)-6,9-diazaspiro[2.6]nonan-9-yl]butan-1-one] | 0.1 to 1 µM | > 1 µM | 0.1 to 1 µM | 0.1 to 1 µM
O=C(c1cc2ccccc2s1)N1CCN(c2ncnc3[nH]ccc23)CCC12CC2 [Example 46, benzothiophen-2-yl-[6-(7H-pyrrolo[2,3-d]pyrimidin-4-yl)-6,9-diazaspiro[2.6]nonan-9-yl]methanone] | 0.1 to 1 µM | > 1 µM | > 1 µM | 0.1 to 1 µM
N#Cc1cccc(CC(=O)N2CCN(c3ncnc4[nH]ccc34)CCC23CC3)c1 [Example 47, 3-[2-oxo-2-[6-(7H-pyrrolo[2,3-d]pyrimidin-4-yl)-6,9-diazaspiro[2.6]nonan-9-yl]ethyl]benzonitrile] | > 1 µM | > 1 µM | > 1 µM | > 1 µM
N#CCc1ccccc1C(=O)N1CCN(c2ncnc3[nH]ccc23)CCC12CC2 [Example 48, 2-[2-[6-(7H-pyrrolo[2,3-d]pyrimidin-4-yl)-6,9-diazaspiro[2.6]nonane-9-carbonyl]phenyl]acetonitrile] | > 1 µM | > 1 µM | > 1 µM | > 1 µM
N#CCCC(=O)N1CCN(c2ncnc3[nH]ccc23)CCC12CC2 [Example 49, 4-oxo-4-[6-(7H-pyrrolo[2,3-d]pyrimidin-4-yl)-6,9-diazaspiro[2.6]nonan-9-yl]butanenitrile] | 0.1 to 1 µM | > 1 µM | 0.1 to 1 µM | 0.1 to 1 µM
O=C(c1ccc(S(=O)(=O)NCCc2cccs2)cc1)N1CCN(c2ncnc3[nH]ccc23)CC2(CC2)C1 [Example 50, 4-[5-(7H-pyrrolo[2,3-d]pyrimidin-4-yl)-5,8-diazaspiro[2.6]nonane-8-carbonyl]-N-[2-(2-thienyl)ethyl]benzenesulfonamide] | 0.1 to 1 µM | > 1 µM | 0.1 to 1 µM | 0.1 to 1 µM
N#Cc1ccc(C(=O)N2CCN(c3ncnc4[nH]ccc34)CC3(CC3)C2)s1 [Example 51, 5-[5-(7H-pyrrolo[2,3-d]pyrimidin-4-yl)-5,8-diazaspiro[2.6]nonane-8-carbonyl]thiophene-2-carbonitrile] | < 0.1 µM | 0.1 to 1 µM | < 0.1 µM | < 0.1 µM
COc1cc(S(N)(=O)=O)ccc1C(=O)N1CCN(c2ncnc3[nH]ccc23)CC2(CC2)C1 [Example 52, 3-methoxy-4-[5-(7H-pyrrolo[2,3-d]pyrimidin-4-yl)-5,8-diazaspiro[2.6]nonane-8-carbonyl]benzenesulfonamide] | 0.1 to 1 µM | > 1 µM | 0.1 to 1 µM | < 0.1 µM
COc1cc(C(=O)N2CCN(c3ncnc4[nH]ccc34)CC3(CC3)C2)ccc1S(N)(=O)=O [Example 53, 2-methoxy-4-[5-(7H-pyrrolo[2,3-d]pyrimidin-4-yl)-5,8-diazaspiro[2.6]nonane-8-carbonyl]benzenesulfonamide] | 0.1 to 1 µM | > 1 µM | > 1 µM | 0.1 to 1 µM
NS(=O)(=O)c1ccc(/C=C/C(=O)N2CCN(c3ncnc4[nH]ccc34)CC3(CC3)C2)cc1 [Example 54, 4-[(E)-3-oxo-3-[5-(7H-pyrrolo[2,3-d]pyrimidin-4-yl)-5,8-diazaspiro[2.6]nonan-8-yl]prop-1-enyl]benzenesulfonamide] | < 0.1 µM | 0.1 to 1 µM | 0.1 to 1 µM | < 0.1 µM
CS(=O)(=O)c1ccc(CC(=O)N2CCN(c3ncnc4[nH]ccc34)CC3(CC3)C2)cc1 [Example 55, 2-(4-methylsulfonylphenyl)-1-[5-(7H-pyrrolo[2,3-d]pyrimidin-4-yl)-5,8-diazaspiro[2.6]nonan-8-yl]ethanone] | < 0.1 µM | > 1 µM | 0.1 to 1 µM | < 0.1 µM
